In ChEMBL document CHEMBL4482315, “In vivo imaging of sulfotransferases” (2013):
Active and inactive are the calls of the source. No cut-off for these calls is given here.

Tested on: Rattus norvegicus
Assay: In-vivo substrate activity at SULT1A in brain of Sprague-Dawley rat with renal hypertension a at 0.5 to 2 mCi dosed via bolus injection measured after 60 mins post dose by microPET imaging method
Format: functional, organism-based
Conditions: tested as the 18F-labelled form

In the case of O=[N+]([O-])c1cc(O)ccc1F, the Activity is reported as “Active”.
